Measured values published in patent publication US20050058611A1, “Preventing and/or combating collagen fiber degradation induced under conditions of natural exposure to sunlight” (L'OREAL, priority 2003, published 2005).

How the values were obtained:
[1] = system: production of MMP-1 by normal human epidermal keratinocytes; test: MMP-1 production by normal human epidermal keratinocytes cultured on plastic, ELISA; assay type: cell-based; conditions: TPA 20 ng/ml, positive control; cell culture supernatant 24 hours after treatment
Description: FIG. 5 illustrates the production of MMP-1 by normal human epidermal keratinocytes. The cells cultured on plastic are exposed to SSR or treated with TPA (20 ng/ml). The MMP-1 content is evaluated by ELISA 24 hours after treatment in the cell culture supernatant.
Human keratinocytes are isolated from normal human skin (breast surgery) and cultured on a nourishing layer of mitomycin-treated 3T3 mouse fibroblasts.
The MMP-1 content is measured by ELISA (Biotrak kit RPN 2610, Amersham Biotech, France) according to the supplier's instructions.
To determine whether the irradiation of SSR type could also modulate the production of MMP-1 by keratinocytes growing on plastic, the cells were exposed to an SSR radiation. The MMP-1 extracellular contents were quantified 24 hours after UV radiation.

[2] = system: production of MMP-1 by normal human fibroblasts; test: Keratinocyte conditioned medium transferred onto fibroblasts; MMP-1 production by ELISA; assay type: cell-based; conditions: for Production of MMP-1: sodium butyrate 3 mM, fibroblast culture supernatant 24 hours after transfer
Description: Normal human keratinocytes cultured as a monolayer on plastic were subjected to a UV-B radiation (10 mJ/cm^2). The experiment may also be performed in the presence of an SSR as defined in Example 1.
A Philips TL 20 W/12 tube equipped with a Kodacel filter to remove the wavelengths below 290 nm is used as UV-B source.
Just before irradiation, the culture medium of the sub-confluent cells (80-90% of confluence) is replaced with a PBS phosphate buffer to avoid the generation of phototoxic products by the medium. Under these conditions, no loss of viability of the cells is observed at the UV doses used.
After irradiation, the cells were placed in contact with an MEM culture medium free of serum and of growth factor, which are known to interfere with the detection or production of MMP-1, containing or not containing sodium butyrate NaBu (3 mM).
The conditioned medium of the keratinocytes (irradiated or not, in the presence or absence of sodium butyrate) was taken up 24 hours after irradiation and placed in contact with normal human fibroblasts.
The production of MMP-1 detected 24 hours later in the fibroblast culture supernatant was quantified by means of the “Biotrak MMP-1 human ELISA system” detection kit sold by Amersham, according to the supplier's indications.
The results are read using a LabSystems microplate reader equipped with a 450 nm filter.
The amount of MMP-1 is calculated relative to a calibration range prepared with a standard supplied with the kit, and is expressed in ng/ml.

Structure (SMILES)	MMP-1 production by keratinocytes [1]	Effect on the photoinduced stimulation of MMP-1 production ([2]; UV-B irradiated keratinocyte conditioned medium)	Production of MMP-1 ([2]; irradiated (UV-B 10 mJ/cm^2) keratinocyte conditioned medium)	Inhibition of basal production of MMP-1 (factor) ([2]; non-irradiated condition, versus control conditioned medium)	Production of MMP-1 ([2]; non-irradiated keratinocyte conditioned medium)
CCCCCCCCCCCCCC(=O)O[C@@H]1[C@@H](C)[C@@]2(O)[C@@H](C=C(CO)C[C@]3(O)C(=O)C(C)=C[C@@H]23)[C@H]2C(C)(C)[C@]12OC(C)=O [TPA]	leads to an accumulation of MMP-1 production				
CCCC(=O)[O-].[Na+] [sodium butyrate]		capable of preventing this stimulatory effect on MMP-1 production	16.97 ± 3.7 ng/mL	3	4.84 ± 0.36 ng/mL
